The nature of data set [1]: Time to LOAC post-randomization (Cox regression, Kaplan-Meier). In kind it is in vivo, human. The source says:
Time to LOAC post-randomization was to be analyzed using a Cox regression model with treatment (Cox 1972), baseline IgE strata, and region (pooled country) as covariates. The Kaplan-Meier (KM) method was to be used to estimate the probabilities of the event at specific time points for each treatment group (Kaplan and Meier 1958). Nominal p-value from log-rank test stratified by baseline IgE strata and region was also to be provided.

Data set [2] concerns the target tyrosine protein kinase TEC. The settings on record: cited from earlier work.
For the next data set, the system named is ERBB4. The settings on record: cited from earlier work.
The conditions of data set [3]: humans, oral; cited from earlier work.
The mark [4] stands for this setting: 400 mg BID cohort, N = 32, mITT.
Setting [5] is: 400 mg TID cohort, N = 64, mITT.

As a reminder, the IC50 is the point on the concentration scale where inhibition reaches its midpoint. By half-life is commonly meant how long it takes for the measured level to halve.

For the molecule `CC(C)(C=C(C#N)C(=O)N1CCC[C@@H](n2nc(-c3ccc(Oc4ccccc4)cc3F)c3c(N)ncnc32)C1)N1CCN(C2COC2)CC1` (mixture of isomers) [rilzabrutinib, (R)-2-[3-[4-amino-3-(2-fluoro-4-phenoxy-phenyl)pyrazolo[3,4-d]pyrimidin-1-yl]piperidine-1-carbonyl]-4-methyl-4-[4-(oxetan-3-yl)piperazin-1-yl]pent-2-enenitrile], the “Number of participants censored” value in data set [1] (setting [4]) turned out to be 20; in data set [1] (setting [5]), 52. Further, the “Number of participants with LOAC (time-to-LOAC analysis)” value in data set [1] (setting [4]) and in data set [1] (setting [5]) was 12 in each case. In addition, the figures for the “Percentage of participants censored” value in data set [1] (setting [4]) and in data set [1] (setting [5]) were “(62.5)” and “(81.3)”, respectively. Moreover, the figures for the “Percentage of participants with LOAC (time-to-LOAC analysis)” value in data set [1] (setting [4]) and in data set [1] (setting [5]) were “(37.5)” and “(18.8)”, respectively. Besides, the “Probability of LOAC at Week 4” value is listed as 0.161 in data set [1] (400 mg BID cohort, mITT, 95% CI (0.059, 0.309)) and 0.017 in data set [1] (400 mg TID cohort, mITT, 95% CI (0.001, 0.080)). Besides, the “Probability of LOAC at Week 9” value was determined as 0.265 in data set [1] (400 mg BID cohort, mITT, 95% CI (0.125, 0.429)) and 0.156 in data set [1] (400 mg TID cohort, mITT, 95% CI (0.077, 0.261)). Further, the “Probability of LOAC at Week 12” value in data set [1] (400 mg BID cohort, mITT, 95% CI (0.243, 0.607)) stood at 0.432; in data set [1] (400 mg TID cohort, mITT, 95% CI (0.117, 0.325)) it was 0.211. For the same molecule, the “HR vs. placebo, time to LOAC” value was found to be 0.750 in data set [1] (400 mg BID cohort, mITT, 95% CI (0.352, 1.595)) and 0.679 in data set [1] (400 mg TID cohort, mITT, 95% CI (0.327, 1.408)). In addition, the “Q1 of time to LOAC” value in data set [1] (400 mg BID cohort, mITT, 95% CI (19.0, 84.0)) worked out at 55.0 days. In addition, the half-inhibitory concentration (IC50) in data set [2] was 0.8 nM; in the data set on ERBB4, 11 nM. Further, the absorption entry in data set [3] is on record as “rapidly absorbed”. For the same molecule, the half-life in data set [3] was 3 to 4 h. The pharmacokinetic variability result in data set [3] is on record as “variable pharmacokinetics”.
